Experimental data taken from patent US10538512B2, “Aminoacylindazole immunomodulators for treatment of autoimmune diseases” (The Rockefeller University, priority 2016, dated 2020).

Key:
Human FXIIa = biological target: T1, Human FXIIa (Homo sapiens, UniProt P00748); assay: Factor XIIa (FXIIa) inhibitory activity, chromogenic substrate assay; assay type: biochemical; settings: Human FXIIa 12.5 nM, Pefachrome XIIa 400 μM, 10 min preincubation
T1 construct: active coagulation factor XII (FXIIa); purchased Enzyme Research Labs
T1 sequence (P00748 373-615 limits assumed): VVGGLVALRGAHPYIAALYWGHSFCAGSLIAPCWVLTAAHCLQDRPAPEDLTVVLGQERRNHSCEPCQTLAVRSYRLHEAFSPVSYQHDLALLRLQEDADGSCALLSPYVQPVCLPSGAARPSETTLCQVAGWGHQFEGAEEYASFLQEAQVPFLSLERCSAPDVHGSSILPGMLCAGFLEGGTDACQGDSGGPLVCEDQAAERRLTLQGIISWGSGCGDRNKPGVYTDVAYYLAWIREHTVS
T1 sequence (P00748 20-372 partner limits assumed): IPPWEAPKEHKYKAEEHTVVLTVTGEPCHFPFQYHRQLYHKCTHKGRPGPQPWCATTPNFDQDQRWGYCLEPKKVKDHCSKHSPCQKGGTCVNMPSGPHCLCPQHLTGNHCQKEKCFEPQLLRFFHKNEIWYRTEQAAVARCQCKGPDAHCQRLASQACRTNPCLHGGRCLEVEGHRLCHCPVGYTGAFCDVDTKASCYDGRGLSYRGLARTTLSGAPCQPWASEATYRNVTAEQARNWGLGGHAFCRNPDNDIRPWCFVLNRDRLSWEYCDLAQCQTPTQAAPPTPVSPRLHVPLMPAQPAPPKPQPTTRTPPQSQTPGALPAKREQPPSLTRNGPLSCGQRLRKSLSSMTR
In short: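 Buffer was 0.5× HBSS with 25 mM HEPES pH 7.4 and 0.5× TBS-Tween 0.05%. Enzyme and compound (about 1–100 μM) were preincubated 10 min at room temperature, then Pefachrome XIIa was added at 400 μM final. Substrate cleavage was followed as the rate of A405 change at 37 °C.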

Human alpha-thrombin = biological target: T2, Human alpha-thrombin (Homo sapiens, UniProt P00734); assay: Thrombin counterscreen for selectivity, fluorogenic substrate assay; assay type: biochemical; settings: Human alpha-thrombin 12.5 nM, Boc-Val-Pro-Arg-AMC 20 μM, 10 min preincubation
T2 construct: Human alpha-thrombin (Enzyme Research Labs); purchased Enzyme Research Labs
In short: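 Compounds, about 1–100 μM, preincubated 10 min at room temperature with enzyme, then Boc-Val-Pro-Arg-AMC added at 20 μM final.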

Q: For `Nc1nn(C(=O)c2cccc3[nH]c(Cl)cc23)c2c1CCCC2` (single isomer, unassigned) [Example 56, (3-amino-4,5,6,7-tetrahydroindazol-1-yl)(2-chloro-1H-indol-4-yl)methanone], which IC50 (Human FXIIa) is on record?
A: 29 µM

Q: And the IC50 (Human alpha-thrombin)?
A: > 100 µM

Q: How did the IC50 (Human FXIIa) turn out when `Nc1c2c(nn1C(=O)[C@@H]1CCNc3ccccc31)CC[C@H](O)C2` (single isomer, unassigned) [Example 169, ((5S*)-3-amino-5-hydroxy-4,5,6,7-tetrahydroindazol-2-yl)((4R*)-1,2,3,4-tetrahydroquinolin-4-yl)methanone] was run?
A: 60 µM

Q: And the IC50 (Human alpha-thrombin)?
A: > 100 µM

Q: Which IC50 (Human FXIIa) does the source give for `Cc1cccc2c1NCC[C@H]2C(=O)n1nc2c(c1N)CC[C@H](O)C2` (single isomer, unassigned) [Example 197, ((6S*)-3-amino-6-hydroxy-4,5,6,7-tetrahydroindazol-2-yl)((4R*)-8-methyl-1,2,3,4-tetrahydroquinolin-4-yl)methanone] here?
A: 1.5 µM

Q: What about the IC50 (Human alpha-thrombin) of the same compound?
A: > 150 µM

Q: What does the source list for `CCc1cscc1C(=O)n1nc2c(c1N)CCCC2` (single isomer, unassigned) [Example 11, (3-Amino-4,5,6,7-tetrahydroindazol-2-yl)(4-ethylthiophen-3-yl)methanone]?
A: IC50 (Human FXIIa): 0.2 µM; IC50 (Human alpha-thrombin): > 50 µM

Q: What does the source list for `Nc1c2c(nn1C(=O)[C@H]1CCNc3ccccc31)CC[C@@H](O)C2` (single isomer, unassigned) [Example 165, ((5R*)-3-amino-5-hydroxy-4,5,6,7-tetrahydroindazol-2-yl)((4S*)-1,2,3,4-tetrahydroquinolin-4-yl)methanone]?
A: IC50 (Human FXIIa): 0.35 µM; IC50 (Human alpha-thrombin): > 80 µM

Q: With `COc1ccc(C(=O)n2nc3c(c2N)CCCC3)c2cc[nH]c12` [Example 80, (3-amino-4,5,6,7-tetrahydroindazol-2-yl)(7-methoxy-1H-indol-4-yl)methanone] as the compound, how does the IC50 (Human FXIIa) read?
A: 0.25 µM

Q: And the IC50 (Human alpha-thrombin)?
A: 68 µM

Q: How did the IC50 (Human FXIIa) turn out when `Cc1cc2c(n1S(C)(=O)=O)CCCC2C(=O)n1nc2c(c1N)CCCC2` (stereo not drawn) [Example 90, (3-amino-4,5,6,7-tetrahydroindazol-2-yl)(2-methyl-1-(methylsulfonyl)-4,5,6,7-tetrahydro-1H-indol-4-yl)methanone] was run?
A: 0.3 µM

Q: And the IC50 (Human alpha-thrombin)?
A: 18 µM

Q: With `Cc1cc2c([nH]1)CCCC2C(=O)n1nc2c(c1N)CCCC2` (stereo not drawn) [Example 81, (3-amino-4,5,6,7-tetrahydroindazol-2-yl)(2-methyl-4,5,6,7-tetrahydro-1H-indol-4-yl)methanone] as the compound, how does the IC50 (Human FXIIa) read?
A: 0.3 µM

Q: And the IC50 (Human alpha-thrombin)?
A: > 50 µM

Q: How did the IC50 (Human FXIIa) turn out when `CC(C)c1cc2c(C(=O)n3nc4c(c3N)CCCC4)cccc2[nH]1` (single isomer, unassigned) [Example 51, (3-amino-4,5,6,7-tetrahydroindazol-2-yl)(2-isopropyl-1H-indol-4-yl)methanone] was run?
A: 0.4 µM

Q: And the IC50 (Human alpha-thrombin)?
A: > 50 µM
